# ChEMBL document CHEMBL5696443 (Clin Cancer Res, 2016)
# Calls of active or inactive are those of the source. The rule behind the calls is not given here.
# Tests used:
# [1] = biological target: Tyrosine-protein kinase Fer (Homo sapiens, UniProt P16591); assay: Inhibition of human FER using poly (Glu, Tyr)4:1 as substrate in presence of [gamma33P]-ATP by HotSpot assay
# [2] = biological target: Tyrosine-protein kinase Yes (Homo sapiens, UniProt P07947); assay: Inhibition of human YES1 using poly (Glu, Tyr)4:1 as substrate in presence of [gamma33P]-ATP by HotSpot assay
# [3] = biological target: Testis-specific serine/threonine-protein kinase 2 (Homo sapiens, UniProt Q96PF2); assay: Inhibition of human TSSK2 using KKKVSRSGLYRSPSMPENLNRPR as substrate in presence of [gamma33P]-ATP by HotSpot assay
# [4] = biological target: Serine/threonine-protein kinase BRSK1 (Homo sapiens, UniProt Q8TDC3); assay: Inhibition of human BRSK1 using KKKVSRSGLYRSPSMPENLNRPR as substrate in presence of [gamma33P]-ATP by HotSpot assay
# [5] = biological target: Calcium/calmodulin-dependent protein kinase type 1D (Homo sapiens) (UniProt Q8IU85); assay: Inhibition of human CAMK1D at 1 uM using KKALRRQETVDAL as substrate in presence of [gamma33P]-ATP by HotSpot assay relative to control
# [6] = biological target: CDK6/cyclin D3 (Homo sapiens) (UniProt P30281+Q00534); assay: Inhibition of human CDK6/CyclinD3 at 1 uM using RB protein as substrate in presence of [gamma33P]-ATP by HotSpot assay relative to control; assay type: protein-complex assay
# [7] = biological target: Tyrosine-protein kinase CSK (Homo sapiens, UniProt P41240); assay: Inhibition of human CSK at 1 uM using poly (Glu, Tyr)4:1 as substrate in presence of [gamma33P]-ATP by HotSpot assay relative to control
# [8] = biological target: Dual specificity tyrosine-phosphorylation-regulated kinase 3 (Homo sapiens) (UniProt O43781); assay: Inhibition of human DYRK3 at 1 uM using RRRFRPASPLRGPPK as substrate in presence of [gamma33P]-ATP by HotSpot assay relative to control
# [9] = biological target: Ephrin type-A receptor 4 (Homo sapiens) (UniProt P54764); assay: Inhibition of human EPHA4 at 1 uM using poly (Glu, Tyr)4:1 as substrate in presence of [gamma33P]-ATP by HotSpot assay relative to control
# [10] = biological target: Homeodomain-interacting protein kinase 2 (Homo sapiens) (UniProt Q9H2X6); assay: Inhibition of human HIPK2 at 1 uM using MBP as substrate in presence of [gamma33P]-ATP by HotSpot assay relative to control
# [11] = biological target: Tyrosine-protein kinase ITK/TSK (Homo sapiens) (UniProt Q08881); assay: Inhibition of human ITK at 1 uM using MBP as substrate in presence of [gamma33P]-ATP by HotSpot assay relative to control
# [12] = biological target: Dual specificity mitogen-activated protein kinase kinase 2 (Homo sapiens) (UniProt P36507); assay: Inhibition of human MAP2K2 at 1 uM using ERK2 as substrate in presence of [gamma33P]-ATP by HotSpot assay relative to control
# [13] = biological target: Mitogen-activated protein kinase kinase kinase 7 (Homo sapiens) (UniProt O43318); assay: Inhibition of human MAP3K7 at 1 uM using casein as substrate in presence of [gamma33P]-ATP by HotSpot assay relative to control
# [14] = biological target: Serine/threonine-protein kinase mTOR (Homo sapiens) (UniProt P42345); assay: Inhibition of human MTOR at 1 uM using 4EBP1 as substrate in presence of [gamma33P]-ATP by HotSpot assay relative to control
# [15] = biological target: Myosin light chain kinase, smooth muscle (Homo sapiens) (UniProt Q15746); assay: Inhibition of human MYLK at 1 uM using KKLNRTLSFAEPG as substrate in presence of [gamma33P]-ATP by HotSpot assay relative to control
# [16] = biological target: Mitogen-activated protein kinase 14 (Homo sapiens) (UniProt Q16539); assay: Inhibition of human P38alpha T106M mutant at 1 uM using poly (Glu, Tyr)4:1 as substrate in presence of [gamma33P]-ATP by HotSpot assay relative to control
# [17] = biological target: Mitogen-activated protein kinase 12 (Homo sapiens) (UniProt P53778); assay: Inhibition of human P38gamma at 1 uM using MBP as substrate in presence of [gamma33P]-ATP by HotSpot assay relative to control
# [18] = biological target: Serine/threonine-protein kinase PLK3 (Homo sapiens) (UniProt Q9H4B4); assay: Inhibition of human PLK3 at 1 uM using casein as substrate in presence of [gamma33P]-ATP by HotSpot assay relative to control
# [19] = biological target: cAMP-dependent protein kinase catalytic subunit PRKX (Homo sapiens) (UniProt P51817); assay: Inhibition of human PRKX at 1 uM using LRRASLG as substrate in presence of [gamma33P]-ATP by HotSpot assay relative to control
# [20] = biological target: Serine/threonine-protein kinase 33 (Homo sapiens) (UniProt Q9BYT3); assay: Inhibition of human STK33 at 1 uM using MBP as substrate in presence of [gamma33P]-ATP by HotSpot assay relative to control
# [21] = biological target: Serine/threonine-protein kinase TAO3 (Homo sapiens) (UniProt Q9H2K8); assay: Inhibition of human TAOK3 at 1 uM using MBP as substrate in presence of [gamma33P]-ATP by HotSpot assay relative to control
# [22] = biological target: Mitogen-activated protein kinase kinase kinase 20 (Homo sapiens) (UniProt Q9NYL2); assay: Inhibition of human ZAK at 1 uM using MBP as substrate in presence of [gamma33P]-ATP by HotSpot assay relative to control
# Mus musculus = assay: In vivo inhibition of ALK signaling in SCID Beige mouse xenografted with ALK positive human KARPAS-299 cells assessed as reduction in phosphorylated STAT3 level at 10 to 50 mg/kg, po administered as single dose and measured at 6 to 24 hrs by immunoblot analysis; assay type: functional, organism-based; details: dose 10-50 mg/kg, time 6-24 hrs
# SU-DHL-1 = details: time 72 hrs
# [23] = tested on: EML4-ALK (Homo sapiens), Q9UM73+Q9HC35 [L1196M]; details: BaF3, time 3-5 weeks
# [24] = tested on: EML4-ALK (Homo sapiens), Q9UM73+Q9HC35 [L1198F]; details: BaF3, time 3-5 weeks
# [25] = tested on: EML4-ALK (Homo sapiens), Q9UM73+Q9HC35 [L1152R]; details: BaF3, dose 500.0 nmol/L, time 3-5 weeks
# [26] = tested on: EML4-ALK (Homo sapiens), Q9UM73+Q9HC35 [C1156Y]; details: BaF3, dose 500.0 nmol/L, time 3-5 weeks
compound,measurement,setting,value
COc1cc(N2CCC(N3CCN(C)CC3)CC2)ccc1Nc1ncc(Cl)c(Nc2ccccc2P(C)(C)=O)n1 [BRIGATINIB],IC50,[1],1.3 nM
same,IC50,[2],19 nM
same,IC50,[3],138 nM
same,IC50,[4],338 nM
same,inhibition,[5],< 90%
same,inhibition,[6],< 90%
same,inhibition,[7],< 90%
same,inhibition,[8],< 90%
same,inhibition,[9],< 90%
same,inhibition,[10],< 90%
same,inhibition,[11],< 90%
same,inhibition,[12],< 90%
same,inhibition,[13],< 90%
same,inhibition,[14],< 90%
same,inhibition,[15],< 90%
same,inhibition,[16],< 90%
same,inhibition,[17],< 90%
same,inhibition,[18],< 90%
same,inhibition,[19],< 90%
same,inhibition,[20],< 90%
same,inhibition,[21],< 90%
same,inhibition,[22],< 90%
same,Activity,Mus musculus,Active
same,GI50,SU-DHL-1,9 nM
same,IC90,[23],118 nM
same,IC90,[24],242 nM
same,inhibition,[25],Active
same,inhibition,[26],Active
